Source: US5348956A, “Substituted cyclopropylamino-1,3,5-triazines” (UCB S.A., priority 1991, dated 1994)
Like-named read-outs stand apart in the source and are kept apart here.

How the values were obtained:
[1] = system: longitudinal muscles of the ileum contracted by histamine; experiment: potentiation of the myorelaxing effect of isoprenaline on the ileum; format: cell-based, Dunkin-Hartley guinea-pigs; conditions: with isoprenaline 10^-7 mole/l; histamine 3.2 μmoles/l
Method: (cf. R. A. TURNER, "Screening Methods in Pharmacology", Ed. Acad. Press, San Diego, 1965, chapter IV, pages 43-47). […] Inhibition cycle: When the successive contractions induced by the histamine injections have become reproducible, the compound to be tested is injected immediately after the second wash. The contraction induced by the following injection of histamine is measured and compared with the average of the three preceding contractions caused by the repeated injections of histamine (control contractions). From the result obtained, the percentage inhibition of the contraction is calculated. Several cycles of histamine injection are then performed again, until the contractions of the muscle become reproducible again; the muscle is then ready for testing of another compound. The potentiating effect of a compound is measured in the course of a so-called "potentiation" cycle, which comprises three successive inhibition cycles. […] In the course of the second inhibition cycle, the percentage inhibition of the contraction obtained with the compound to be tested, injected alone at a given dose, is determined. In the third inhibition cycle, isoprenaline and the compound to be tested are injected simultaneously, and the percentage inhibition of the contraction is calculated for the dose used of the compound tested. The same experiments are repeated for each of the doses of the compounds tested.

[2] = system: anaphylactic release of histamine, guinea-pig lung sections; experiment: potentiation of the inhibition of anaphylactic histamine release by isoprenaline; format: cell-based, Dunkin-Hartley guinea-pigs; conditions: with isoprenaline 10^-7 mole per liter
Method: (§1) Dunkin-Hartley guinea-pigs which are first passively sensitized by an intravenous injection of 1 ml of isologous antiovalbumin serum are used. Twenty-four hours after the injection, the lungs are then perfused with a Tyrode buffer to evacuate the blood, and then removed and cut into sections of 1 mm. These sections are divided up into test tubes (3 sections per tube) to give 10 experimental groups of lung sections per guinea-pig. A "positive" control group of lung sections is stimulated by addition of an ovalbumin solution (0.1 mg/ml) to induce the anaphylactic release of histamine and serves to determine the maximum amount of histamine (100%) which can be released. A "negative" control group which is not stimulated by ovalbumin serves to determine the naturally released amount of histamine (spontaneous release). In three other groups, the lung sections are incubated at 37° C. for 30 minutes in the ovalbumin solution in the presence of three different doses of the compound to be tested (one dose per group). […] At this dose, isoprenaline inhibits the release of histamine by 30 to 40%, which is verified on a control group treated only with isoprenaline alone at this dose. In addition, a supplementary control group which is not stimulated by ovalbumin is used to detect a possible spontaneous release of histamine by the highest dose of the compound tested. In each group, the histamine released in the incubation medium is measured by spectrofluorometry (D. P. EVANS et al., Life Sci., 12, (1973), 327-336).

[3] = toxicity, Irwin's test; format: in vivo; conditions: i.p.; death of two animals out of three within 48 hours
Method: Progressive doses of the compound to be tested are administered intraperitoneally to groups of three mice until the lethal dose is reached (dose which causes the death of two animals out of three within 48 hours).

[4] = system: bronchospasm induced by serotonin; experiment: bronchospasmolytic activity (Konzett and Roessler), bronchospasm induced by serotonin; format: in vivo, Dunkin-Hartley guinea-pig; conditions: Cavia porcellus, read-out: Doses (ID50), Serotonin
Method: (§2) This activity was measured in the Dunkin-Hartley guinea-pig by the method of H. KONZETT and […] (Naunyn Schmiedebergs Arch. exp. Path. […] The anesthetized (urethane) and curarized (gallamine) guinea-pig is placed under assisted respiration. The endotracheal pressure is recorded. […] The compound to be tested is also administered intravenously two minutes before the administration of the spasmogen and then in 3 to 4 cumulative doses in increasing amounts at intervals of 15 minutes. Six animals per compound to be tested and per spasmogen are used.

[5] = multiple-trial passive avoidance: learning; format: in vivo, male Sprague-Dawley rats
Method: To evaluate whether a compound can promote learning, the following test is carried out. […] Rats which remain on the mat for this period have acquired the avoidance reflex and are replaced in their original cage without receiving the electric shock. […] The results obtained in the test used to evaluate learning are given in columns 3 and 4. […] The results were analyzed by the Student test.

[6] = system: bronchospasm induced by histamine; experiment: bronchospasmolytic activity (Konzett and Roessler), bronchospasm induced by histamine; format: in vivo, Dunkin-Hartley guinea-pig; conditions: Cavia porcellus, read-out: Doses (ID50), Histamine
Method: as §2

[7] = system: bronchospasm induced by acetylcholine; experiment: bronchospasmolytic activity (Konzett and Roessler), bronchospasm induced by acetylcholine; format: in vivo, Dunkin-Hartley guinea-pig; conditions: Cavia porcellus, read-out: Doses (ID50), Acetylcholine
Method: as §2

[8] = system: anaphylactic release of histamine, guinea-pig lung sections; experiment: inhibition of the anaphylactic release of histamine (proper effect); format: cell-based, Dunkin-Hartley guinea-pigs; conditions: Cavia porcellus, in vitro, read-out: Minimum inhibitory dose (MID)
Method: as §1

[9] = system: PMN granulocytes; experiment: inhibition of the stimulation of PMN granulocytes (chemiluminescence); format: cell-based, Rat; conditions: for activity at 1 µM: FMLP 3.2×10^-7 mole/liter
Text: Polymorphonuclear neutrophil granulocytes (PMN) are cells which are mobilized during inflammatory phenomena and which can be stimulated by various compounds, such as, for example, formylmethionyl-leucylphenylalanine (FMLP) or prostaglandins E (PGE1). The PMN granulocytes respond to these extracellular stimuli with an activation of the oxygen metabolism with release of toxic oxygenated metabolites. An excessive response of the PMN granulocytes may be the cause of a painful inflammation and is also accompanied by a reduction in the level of cyclic adenosine monophosphate (cAMP) in these granulocytes. Consequently, compounds which inhibit the respiratory burst of PMN granulocytes or which increase the level of cAMP can be regarded as very important in the treatment of arthritis and asthma. […] Rat PMN granulocytes (5×10^6 /ml) are preincubated in a phosphate buffer ([…], pH 7.4), containing luminol at a concentration of 10^-5 mole per liter, for 15 minutes at 37° C. and then for 5 minutes in the presence of the compound to be treated at a concentration of 10^-6 mole/liter. […] The luminescence which results from the stimulation is measured by means of an LKB 1251 luminometer according to the method of […] and […] (Infection and Immunology, 37, (1982), 34-39). An experimental cycle lasts 38 seconds. The reaction is repeated 9 times for each compound to be tested and the average of the results obtained is calculated.

[10] = system: plantar edema induced by immune complexes; experiment: "reverse passive Arthus" (RPA) test, anti-inflammatory and anti-edema activity; format: in vivo, Sprague-Dawley rat; conditions: Rattus norvegicus, intravenous
Method: The reaction between a soluble antigen and antibodies in the organism may lead to an acute inflammatory reaction accompanied by release of histamine, modification of vascular permeability and formation of a localized edema. […] To this end, the Arthus reaction is induced by subplantar administration of 0.1 ml of heterologous antivalbumin reaginic serum into the right hind paw and by simultaneous intravenous injection of 1 ml/kg ovalbumin (25 mg/ml). The compound to be tested is administered intravenously 30 seconds before induction of the Arthus reaction, in a least 3 different doses. A group of 6 rats is used per dose of compound to be tested. The volume of the paw is measured by plethysmometry before the Arthus reaction and 3 to 5 hours after induction of the Arthus reaction, both in the control animals and in the treated animals. The effect of a compound on the reduction in the edema for each dose and at each measurement time (3 hours and 5 hours) is expressed in % of the edema observed in the control animals. The doses of the compounds (ID30 in μmole/kg) which inhibit by 30%, on average over all the animals, the volume of the edema observed in the control animals are given in Table VII below.

[11] = system: amnesia induced by scopolamine; experiment: multiple-trial passive avoidance: mnemic retention, amnesia induced by scopolamine
Method: To this end, the method of multiple-trial passive avoidance has been used. […] The test is carried out on male Sprague-Dawley rats (160-200 g). which are kept in standard cages throughout the experiment. The apparatus used is a transparent square cage with 35 cm sides and 25 cm high, fitted with a grid floor which can be electrified. A rubber insulating mat (10×17 cm) is placed on the floor in one of the corners of the cage.
Each animal is subjected to four tests at times 0, 4, 24 and 28 hours. In the first test (time 0), the animal is placed on the rubber mat and the time which it takes to decide to leave this position to explore the cage is recorded. After 20 seconds of exploration, the rat receives an electric shock (3 seconds duration) in the paws, causing an escape reaction. The rat is immediately removed from the apparatus and replaced in its original cage. In the course of the three subsequent tests (times: 4, 24 and 28 hours), the animal is replaced on the rubber mat and the time taken to leave this position is recorded. As soon as the four paws of the animal rest on the grid, it receives an electric shock and is removed immediately from the apparatus.
At the start of the experiment, the rats are divided into 4 homogeneous groups of 15 animals. Thirty minutes before each test, each group of animals is subjected to a predetermined treatment:
Groups 1 and 2 are used in the first experiment (learning) and groups 3 and 4 in the second experiment (mnemic retention).
The differences found are analyzed statistically by the Mann-Whitney method.

[12] = system: cAMP in PMN granulocytes; experiment: increase in the level of cAMP in PMN granulocytes; format: cell-based, Rat; conditions: […]10^-6 mole per liter; PGE1 10^-6 mole/liter; control 4.3
Text: Polymorphonuclear neutrophil granulocytes (PMN) are cells which are mobilized during inflammatory phenomena and which can be stimulated by various compounds, such as, for example, formylmethionyl-leucylphenylalanine (FMLP) or prostaglandins E (PGE1). The PMN granulocytes respond to these extracellular stimuli with an activation of the oxygen metabolism with release of toxic oxygenated metabolites. An excessive response of the PMN granulocytes may be the cause of a painful inflammation and is also accompanied by a reduction in the level of cyclic adenosine monophosphate (cAMP) in these granulocytes. […] The reaction is then stopped by addition of 1 ml of propanol. After centrifugation at 15,000 g for 3 minutes, the supernatant is recovered and evaporated and the amount of cAMP in the residue is determined by radioimmunological assay according to the process recommended by the supplier of the reagent used for this purpose (Amersham). A control test is carried out under the same conditions, but in the absence of the compound to be tested.

[13] = intravenous, serotonin-induced bronchospasm
[14] = intravenous, histamine-induced bronchospasm
[15] = intravenous, acetylcholine-induced bronchospasm
[16] = Rattus norvegicus, 10^-6 mole/l, read-out: Residual chemiluminescence
[17] = 3 hours after induction of the Arthus reaction, read-out: Dose (ID30), 3 hours
[18] = 5 hours after induction of the Arthus reaction, read-out: Dose (ID30), 5 hours

SMILES | Minimum potentiating dose (MPD) [1] | Minimum potentiating dose (MPD) [2] | Lethal dose [3] | ED50 [4, 13] | ED50 [6, 14] | ED50 [7, 15] | minimal effective concentration [8] | activity at 1 µM [9, 16] | ED30 [10, 17] | ED30 [10, 18] | further results
Cc1nc(NC2CC2)nc(N2CC3CCC(C2)O3)n1.Cl [Compound 9, 2-Cyclopropylamino-4-methyl-6-(8-oxa-3-azabicyclo[3,2,1]oct-3-yl)-1,3,5-triazine hydrochloride] | 10.0 µmol/L | 3.2 µmol/L | 297.8 mg/kg | 1 µmol/kg | 0.4 µmol/kg | 2.1 µmol/kg | 3.2 µM | 82% | 3.4 µmol/kg | 4.4 µmol/kg | Learning, average number of trials, group 2 ([5]; 3.0 mg/kg i.p.): 2.9 trials; Period of remaining on the mat, group 4 ([11]; 4 hours, 3.0 mg/kg i.p. + 0.5 mg scopolamine): 17.3 s; Period of remaining on the mat, group 4 ([11]; 24 hours, 3.0 mg/kg i.p. + 0.5 mg scopolamine): 38.1 s; Period of remaining on the mat, group 4 ([11]; 28 hours, 3.0 mg/kg i.p. + 0.5 mg scopolamine): 65.2 s; Period of remaining on the mat, group 4 ([11]; time 0, 3.0 mg/kg i.p. + 0.5 mg scopolamine): 3.6 s
CCc1nc(NC2CC2)nc(N2CC3CCC(C2)O3)n1 [Compound 10] | 1.0 µmol/L | 0.32 µmol/L | 311.8 mg/kg | 0.3 µmol/kg | 0.1 µmol/kg | 0.5 µmol/kg | 3.2 µM | 56% |  |  | Period of remaining on the mat, group 4 ([11]; 4 hours, […] i.p. + 0.5 mg scopolamine): 20.3 s; Period of remaining on the mat, group 4 ([11]; 24 hours, […] i.p. + 0.5 mg scopolamine): 78.9 s; Period of remaining on the mat, group 4 ([11]; 28 hours, […] i.p. + 0.5 mg scopolamine): 142.0 s; Period of remaining on the mat, group 4 ([11]; time 0, […] i.p. + 0.5 mg scopolamine): 5.7 s
CCCc1nc(NC2CC2)nc(N2CC(O)C2)n1 [Compound 15] | 3.2 µmol/L | 3.2 µmol/L | > 498 mg/kg | 0.2 µmol/kg | 0.08 µmol/kg | 0.3 µmol/kg | 10 µM | 70% | 39 µmol/kg | 4 µmol/kg | Learning, average number of trials, group 2 ([5]; 2.5 mg/kg i.p.): 1.9 trials; Period of remaining on the mat, group 4 ([11]; 4 hours, 2.5 mg/kg i.p. + 0.5 mg scopolamine): 19.5 s; Period of remaining on the mat, group 4 ([11]; 24 hours, 2.5 mg/kg i.p. + 0.5 mg scopolamine): 94.3 s; Period of remaining on the mat, group 4 ([11]; 28 hours, 2.5 mg/kg i.p. + 0.5 mg scopolamine): 112.7 s; Period of remaining on the mat, group 4 ([11]; time 0, 2.5 mg/kg i.p. + 0.5 mg scopolamine): 9.8 s
CNC(=O)Oc1ccc2c(c1)[C@]1(C)CCN(C)[C@@H]1N2C [physostigmine, reference compound] |  |  |  |  |  |  |  |  |  |  | Learning, average number of trials, group 2 ([5]; 0.4 mg/kg i.p.): 2.3 trials; Period of remaining on the mat, group 4 ([11]; 4 hours, 0.4 mg/kg i.p. + 0.5 mg scopolamine): 17.8 s; Period of remaining on the mat, group 4 ([11]; 24 hours, 0.4 mg/kg i.p. + 0.5 mg scopolamine): 56.2 s; Period of remaining on the mat, group 4 ([11]; 28 hours, 0.4 mg/kg i.p. + 0.5 mg scopolamine): 53.4 s; side effects / toxicity at the active dose ([11]; at the dose active against scopolamine amnesia): at a dose which has side effects and is very close to the toxic dose; action against the amnesic effect of scopolamine ([11]; similar to that of the compounds according to the invention): favorable action against the amnesic effect of scopolamine; Period of remaining on the mat, group 4 ([11]; time 0, 0.4 mg/kg i.p. + 0.5 mg scopolamine): 1.9 s
Cn1c(=O)c2[nH]cnc2n(C)c1=O [theophylline, reference compound] | 1000.0 µmol/L | 1000.0 µmol/L |  |  |  |  | 100 µM | 100% | 18 µmol/kg | 10 µmol/kg | ED50 ([4]; iv): 4.6 µmol/kg; ED50 ([6]; iv): 5.6 µmol/kg; ED50 ([7]; iv): 10 µmol/kg; inhibition of the stimulation of PMN granulocytes ([9]; 10^-6 mole/l): completely inactive; activity at 100 µM ([9]; Rattus norvegicus, 10^-4 mole/l, read-out: Residual chemiluminescence): 65%; Amount of cAMP produced [12]: 5.0 picomoles per 10^7 cells
